Reference: US10294202B2, “Pyrrolidinones as herbicides” (FMC Corporation, priority 2013, dated 2019)

Experiments:
[1] = test system: foxtail, green; test: Test E preemergence herbicide test; assay type: in vivo, Setaria viridis; parameters: key: 0 = no effect, 100 = complete control
Summary of the method: (§1)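 Visual injury rating, 0 (no effect) to 100 (complete control), versus controls at 21 days in greenhouse. Preemergence application to seeds planted in silt loam; compound formulated in non-phytotoxic solvent mix plus surfactant.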

[2] = test system: buckwheat, wild; test: Test D pre-/postemergence herbicide test; assay type: in vivo, Polygonum convolvulus; details: for Plant response rating: Buckwheat, Wild, scale 0 to 100; for Plant response rating, Buckwheat, Wild: scale 0 to 100 (0 no effect, 100 complete control)
Summary of the method: (§2)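 Test chemicals in a non-phytotoxic solvent with surfactant were applied preemergence to seeds in silt loam soil and postemergence to plants at 2-18 cm (1- to 4-leaf stage) in peat-based medium. After 7 to 21 days in a controlled environment, injury was rated visually versus controls on a 0-100 scale (100 = complete control).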

[3] = test system: foxtail, green; test: Test D pre-/postemergence herbicide test; assay type: in vivo, Setaria viridis; details: for Plant response rating: Foxtail, Green, scale 0 to 100; for Plant response rating, Foxtail, Green: scale 0 to 100 (0 no effect, 100 complete control)
Summary of the method: as §2

[4] = test system: deadnettle; test: Test D pre-/postemergence herbicide test; assay type: in vivo, Lamium amplexicaule; details: for Plant response rating: Deadnettle, scale 0 to 100; for Plant response rating, Deadnettle: scale 0 to 100 (0 no effect, 100 complete control)
Summary of the method: as §2

[5] = test system: bluegrass; test: Test D pre-/postemergence herbicide test; assay type: in vivo, Poa annua; details: for Plant response rating: Bluegrass, scale 0 to 100; for Plant response rating, Bluegrass: scale 0 to 100 (0 no effect, 100 complete control)
Summary of the method: as §2

[6] = test system: blackgrass; test: Test D pre-/postemergence herbicide test; assay type: in vivo, Alopecurus myosuroides; details: for Plant response rating: Blackgrass, scale 0 to 100; for Plant response rating, Blackgrass: scale 0 to 100 (0 no effect, 100 complete control)
Summary of the method: as §2

[7] = test system: galium; test: Test D pre-/postemergence herbicide test; assay type: in vivo, Galium aparine; details: for Plant response rating: Galium, scale 0 to 100; for Plant response rating, Galium: scale 0 to 100 (0 no effect, 100 complete control)
Summary of the method: as §2

[8] = test system: johnsongrass; test: Test E preemergence herbicide test; assay type: in vivo, Sorghum halepense; parameters: key: 0 = no effect, 100 = complete control
Summary of the method: as §1

[9] = test system: bromegrass, downy; test: Test D pre-/postemergence herbicide test; assay type: in vivo, Bromus tectorum; details: for Plant response rating: Bromegrass, Downy, scale 0 to 100; for Plant response rating, Bromegrass, Downy: scale 0 to 100 (0 no effect, 100 complete control)
Summary of the method: as §2

## O=C1NCC(c2ccc(F)c(F)c2)C1C(=O)Nc1cccc(F)c1F (stereo not drawn) [Compound 17, N-(2,3-difluorophenyl)-4-(3,4-difluorophenyl)-2-oxo-3-pyrrolidinecarboxamide]
[1]; 16 g ai/ha
  Plant response rating, Foxtail, Green: 0
[1]; 31 g ai/ha
  Plant response rating, Foxtail, Green: 25
[1]; 62 g ai/ha
  Plant response rating, Foxtail, Green: 40
[1]; 125 g ai/ha
  Plant response rating, Foxtail, Green: 70
[1]; 250 g ai/ha
  Plant response rating, Foxtail, Green: 95
[2]; Postemergence, 16 g ai/ha
  Plant response rating: 0
[2]; Postemergence, 31 g ai/ha
  Plant response rating: 0
[2]; Postemergence, 62 g ai/ha
  Plant response rating: 0
[2]; Postemergence, 125 g ai/ha
  Plant response rating: 10
[2]; Postemergence, 250 g ai/ha
  Plant response rating: 20
[3]; Postemergence, 16 g ai/ha
  Plant response rating: 0
[3]; Postemergence, 31 g ai/ha
  Plant response rating: 0
[3]; Postemergence, 62 g ai/ha
  Plant response rating: 0
[3]; Postemergence, 125 g ai/ha
  Plant response rating: 0
[3]; Postemergence, 250 g ai/ha
  Plant response rating: 0
[4]; Postemergence, 16 g ai/ha
  Plant response rating: 0
[4]; Postemergence, 31 g ai/ha
  Plant response rating: 0
[4]; Postemergence, 62 g ai/ha
  Plant response rating: 0
[4]; Postemergence, 125 g ai/ha
  Plant response rating: 10
[4]; Postemergence, 250 g ai/ha
  Plant response rating: 10
[5]; Postemergence, 16 g ai/ha
  Plant response rating: 0
[5]; Postemergence, 31 g ai/ha
  Plant response rating: 0
[5]; Postemergence, 62 g ai/ha
  Plant response rating: 0
[5]; Postemergence, 125 g ai/ha
  Plant response rating: 0
[5]; Postemergence, 250 g ai/ha
  Plant response rating: 0
[6]; Postemergence, 16 g ai/ha
  Plant response rating: 0
[6]; Postemergence, 31 g ai/ha
  Plant response rating: 0
[6]; Postemergence, 62 g ai/ha
  Plant response rating: 0
[6]; Postemergence, 125 g ai/ha
  Plant response rating: 0
[6]; Postemergence, 250 g ai/ha
  Plant response rating: 0
[7]; Postemergence, 16 g ai/ha
  Plant response rating: 0
[7]; Postemergence, 31 g ai/ha
  Plant response rating: 0
[7]; Postemergence, 62 g ai/ha
  Plant response rating: 0
[7]; Postemergence, 125 g ai/ha
  Plant response rating: 10
[7]; Postemergence, 250 g ai/ha
  Plant response rating: 30
[8]; 16 g ai/ha
  Plant response rating, Johnsongrass: 0
[8]; 31 g ai/ha
  Plant response rating, Johnsongrass: 0
[8]; 62 g ai/ha
  Plant response rating, Johnsongrass: 0
[8]; 125 g ai/ha
  Plant response rating, Johnsongrass: 0
[8]; 250 g ai/ha
  Plant response rating, Johnsongrass: 0
[9]; Postemergence, 16 g ai/ha
  Plant response rating: 0
[9]; Postemergence, 31 g ai/ha
  Plant response rating: 0
[9]; Postemergence, 62 g ai/ha
  Plant response rating: 0
[9]; Postemergence, 125 g ai/ha
  Plant response rating: 0
[9]; Postemergence, 250 g ai/ha
  Plant response rating: 0

## O=C1NCC(c2ccc(C(F)(F)F)cc2)C1C(=O)Nc1cccc(F)c1F (stereo not drawn) [Compound 80, N-(2,3-difluorophenyl)-2-oxo-4-[4-(trifluoromethyl)phenyl]-3-pyrrolidinecarboxamide]
[1]; 16 g ai/ha
  Plant response rating, Foxtail, Green: 50
[1]; 31 g ai/ha
  Plant response rating, Foxtail, Green: 60
[1]; 62 g ai/ha
  Plant response rating, Foxtail, Green: 70
[1]; 125 g ai/ha
  Plant response rating, Foxtail, Green: 80
[1]; 250 g ai/ha
  Plant response rating, Foxtail, Green: 90
[2]; Postemergence, 31 g ai/ha
  Plant response rating: 0
[2]; Postemergence, 62 g ai/ha
  Plant response rating: 10
[2]; Postemergence, 125 g ai/ha
  Plant response rating: 0
[2]; Postemergence, 250 g ai/ha
  Plant response rating: 0
[2]; Preemergence, 62 g ai/ha
  Plant response rating, Buckwheat, Wild: 0
[2]; Preemergence, 31 g ai/ha
  Plant response rating, Buckwheat, Wild: 0
[2]; Preemergence, 125 g ai/ha
  Plant response rating: 5
[2]; Preemergence, 250 g ai/ha
  Plant response rating: 15
[3]; Postemergence, 31 g ai/ha
  Plant response rating: 45
[3]; Postemergence, 62 g ai/ha
  Plant response rating: 45
[3]; Postemergence, 125 g ai/ha
  Plant response rating: 65
[3]; Postemergence, 250 g ai/ha
  Plant response rating: 65
[3]; Preemergence, 62 g ai/ha
  Plant response rating, Foxtail, Green: 65
[3]; Preemergence, 31 g ai/ha
  Plant response rating, Foxtail, Green: 20
[3]; Preemergence, 125 g ai/ha
  Plant response rating: 75
[3]; Preemergence, 250 g ai/ha
  Plant response rating: 80
[4]; Postemergence, 31 g ai/ha
  Plant response rating: 70
[4]; Postemergence, 62 g ai/ha
  Plant response rating: 60
[4]; Postemergence, 125 g ai/ha
  Plant response rating: 70
[4]; Postemergence, 250 g ai/ha
  Plant response rating: 40
[4]; Preemergence, 62 g ai/ha
  Plant response rating, Deadnettle: 0
[4]; Preemergence, 31 g ai/ha
  Plant response rating, Deadnettle: 0
[4]; Preemergence, 125 g ai/ha
  Plant response rating: 65
[4]; Preemergence, 250 g ai/ha
  Plant response rating: 70
[5]; Postemergence, 31 g ai/ha
  Plant response rating: 5
[5]; Postemergence, 62 g ai/ha
  Plant response rating: 10
[5]; Postemergence, 125 g ai/ha
  Plant response rating: 15
[5]; Postemergence, 250 g ai/ha
  Plant response rating: 10
[5]; Preemergence, 62 g ai/ha
  Plant response rating, Bluegrass: 10
[5]; Preemergence, 31 g ai/ha
  Plant response rating, Bluegrass: 0
[5]; Preemergence, 125 g ai/ha
  Plant response rating: 20
[5]; Preemergence, 250 g ai/ha
  Plant response rating: 45
[6]; Postemergence, 31 g ai/ha
  Plant response rating: 5
[6]; Postemergence, 62 g ai/ha
  Plant response rating: 5
[6]; Postemergence, 125 g ai/ha
  Plant response rating: 5
[6]; Postemergence, 250 g ai/ha
  Plant response rating: 5
[6]; Preemergence, 62 g ai/ha
  Plant response rating, Blackgrass: 10
[6]; Preemergence, 31 g ai/ha
  Plant response rating, Blackgrass: 5
[6]; Preemergence, 125 g ai/ha
  Plant response rating: 20
[6]; Preemergence, 250 g ai/ha
  Plant response rating: 25
[7]; Postemergence, 31 g ai/ha
  Plant response rating: 20
[7]; Postemergence, 62 g ai/ha
  Plant response rating: 45
[7]; Postemergence, 125 g ai/ha
  Plant response rating: 55
[7]; Postemergence, 250 g ai/ha
  Plant response rating: 60
[7]; Preemergence, 62 g ai/ha
  Plant response rating, Galium: 45
[7]; Preemergence, 31 g ai/ha
  Plant response rating, Galium: 0
[7]; Preemergence, 125 g ai/ha
  Plant response rating: 65
[7]; Preemergence, 250 g ai/ha
  Plant response rating: 75
[8]; 16 g ai/ha
  Plant response rating, Johnsongrass: 0
[8]; 31 g ai/ha
  Plant response rating, Johnsongrass: 0
[8]; 62 g ai/ha
  Plant response rating, Johnsongrass: 0
[8]; 125 g ai/ha
  Plant response rating, Johnsongrass: 10
[8]; 250 g ai/ha
  Plant response rating, Johnsongrass: 30
[9]; Postemergence, 31 g ai/ha
  Plant response rating: 15
[9]; Postemergence, 62 g ai/ha
  Plant response rating: 15
[9]; Postemergence, 125 g ai/ha
  Plant response rating: 20
[9]; Postemergence, 250 g ai/ha
  Plant response rating: 20
[9]; Preemergence, 62 g ai/ha
  Plant response rating, Bromegrass, Downy: 5
[9]; Preemergence, 31 g ai/ha
  Plant response rating, Bromegrass, Downy: 0
[9]; Preemergence, 125 g ai/ha
  Plant response rating: 5
[9]; Preemergence, 250 g ai/ha
  Plant response rating: 10
